For one assay, the system named is VCaP cells. Kind of assay: Cellular growth inhibition assay for VCaP cells (CellTiter-Glo 2.0, 72 hours). Type of assay: cell-based, human. The conditions noted are these: for GI50: CellTiter-Glo 2.0.
Assay [1] has as its system T-Rex 293 cell line SC3 cells lacking increased expression of androgen receptor protein. Kind of assay: Cellular growth inhibition, T-Rex 293 SC3 cells without doxycycline (CellTiter-Glo 2.0, 72 hours). Type of assay: cell-based. The settings on record: T-Rex 293 SC3 cells not exposed to doxycycline (no increased androgen receptor expression).
The test system of assay [2] is T-Rex 293 cell line SC3 cells having increased expression of androgen receptor protein due to exposure to doxycycline. Kind of assay: Cellular growth inhibition, T-Rex 293 SC3 cells with doxycycline-induced androgen receptor (CellTiter-Glo 2.0, 72 hours). Format: cell-based. The settings on record: for GI50: T-Rex 293 SC3 cells with 10 ng/ml doxycycline (increased androgen receptor expression), 72 hours, CellTiter-Glo 2.0. In general terms: ATP-based viability assays read luminescence as a measure of living cells.

Another assay relates to T47D cells. Kind of assay: Cellular growth inhibition assay for T47D cells (CellTiter-Glo 2.0, 72 hours). Format: cell-based, human. The procedure:
Exemplary compounds were tested for ability to inhibit the proliferation of T47D cells. T47D cells are a commercially available human breast cancer cell line.
T47D cells were purchased from American Type Cell Culture (ATCC Cat #HTB-133) and then seeded on poly-D-lysine coated, black clear-bottom 384-well plates at 3000/well in 25 μL Dulbecco's Modified Eagle Medium (DMEM) supplemented with 10% w/w Fetal bovine serum (FBS), 0.2 units/mL recombinant human insulin (Gibco Cat #12585014), and 1% w/w Pen-Strep. Pen-Strep is a commercially available mixture of penicillin G and streptomycin, which is used in mammalian cell culture media to prevent bacterial contamination. Dulbecco's Modified Eagle Medium (DMEM) supplemented with 10% w/w fetal bovine serum (FBS), 0.2 units/mL recombinant human insulin, and 1% w/w Pen-Strep is herein referred to as Treatment Medium. Following seeding of cells in the plates, the plates were spun at 300×g for 30 seconds, then equilibrated to room temperature for 30 minutes, and then deposited in a humidified tissue culture incubator maintained at 37° C. with 5% CO2.
At 24 hours after seeding of the cells, dilutions of test compound were prepared in DMSO and dissolved in Treatment Medium, to achieve a final DMSO concentration of 0.5% w/w, thereby providing the Test Compound Solution. A 25 μL aliquot of the Test Compound Solution was added to cells in the well plates. An equal volume of a solution containing DMSO and Treatment Medium was used as a negative control. Following treatment of cells with Test Compound Solution or said equal volume of a solution containing DMSO and Treatment Medium, the plates were spun at 300×g for 30 seconds, and then left in an incubator for 72 hours.
At the end of the treatment duration, cell viability was quantified with CellTiter-Glo 2.0 reagent (Promega Cat #G9243). For this purpose, plates were equilibrated to room temperature for 30 minutes, and then 25 μL of CellTiter-Glo 2.0 reagent was added to cells in the plate wells. Plates were then agitated on a shaker for two minutes at 500 rpm and subsequently incubated at room temperature for 10 minutes. Following incubation, the plates were spun at 3000×g for 30 seconds, then sealed with an optical adhesive cover, and luminescence readings were measured with an En Vision Plate Reader (Perkin Elmer).
Data was normalized using zero luminescence for baseline. A four-parameter non-linear regression curve fit was applied to dose-response data in GraphPad Prism data analysis software to determine the half-maximal growth inhibitory concentration (GI50) for each test compound.

Like-named read-outs stand apart in the source and are kept apart here.

Broadly, the GI50 is the concentration giving 50% growth inhibition. Regarding `COc1cc(O[C@H]2CC[C@H](NC(=O)c3ncc(N4CCC5(CCC(c6ccc(C7=N[C@@H](C)c8nnc(C)n8-c8sc(C)c(C)c87)cc6)CC5)C4)cn3)CC2)ccc1C#N` (stereo partly shown) [Compound I-102], the GI50 is less than 500 nM in the assay with VCaP cells (Homo sapiens, VCaP, 72 h); less than 500 nM in assay [1] (72 h); less than 500 nM in assay [2]; less than 500 nM in the assay on T47D cells (Homo sapiens, T47D, 72 h).
Consider `COc1cc(O[C@H]2CC[C@H](NC(=O)c3ccc(N4CCC5(CN(c6ccc(C7=N[C@@H](C)c8nnc(C)n8-c8sc(C)c(C)c87)cc6)CC5(F)F)C4)nn3)CC2)ccc1C#N` (stereo partly shown) [Compound I-103], for which the GI50 was 500 to 1500 nM in the assay on VCaP cells (Homo sapiens, VCaP, 72 h); less than 500 nM in assay [1] (72 h); less than 500 nM in assay [2]; 500 to 1500 nM with T47D cells.
Regarding `COc1cc(O[C@H]2CC[C@H](NC(=O)c3ccc(N4CCC5(CN(c6ccc(C7=N[C@@H](C)c8nnc(C)n8-c8sc(C)c(C)c87)cc6)CC5(F)F)C4)nn3)CC2)ccc1C#N` (stereo partly shown) [Compound I-104], the GI50 in the assay on VCaP cells (72 hours) is 500 to 1500 nM; in assay [1], 500 to 1500 nM; in assay [2] it was less than 500 nM; with T47D cells, 1500 to 3000 nM.
With `Cc1sc2c(c1C)C(c1ccc(CC3CC4(CCN(c5ncc(C(=O)N[C@H]6C(C)(C)[C@H](Oc7ccc(C#N)c(OC(F)(F)F)c7)C6(C)C)cn5)CC4)C3)cc1)=N[C@@H](Cc1ncco1)c1nnc(C)n1-2` [II-1, N-[3-[4-cyano-3-(trifluoromethoxy)phenoxy]-2,2,4,4-tetramethyl-cyclobutyl]-2-[2-[[4-[(9S)-4,5,13-trimethyl-9-(oxazol-2-ylmethyl)-3-thia-1,8,11,12-tetrazatricyclo[8.3.0.0^2,6]trideca-2 (6),4,7,10,12-pentaen-7-yl]phenyl]methyl]-7-azaspiro[3.5]nonan-7-yl]pyrimidine-5-carboxamide], the GI50 with VCaP cells (Homo sapiens, VCaP, 72 h) is more than 3000 nM; in assay [1] (72 h), less than 500 nM; in assay [2] it was less than 500 nM; in the assay on T47D cells (Homo sapiens, T47D, 72 h), less than 500 nM.
`Cc1sc2c(c1C)C(c1ccc(OC3CC4(CCN(c5ncc(C(=O)N[C@H]6C(C)(C)[C@H](Oc7ccc(C#N)c(OC(F)(F)F)c7)C6(C)C)cn5)CC4)C3)cc1)=N[C@@H](Cc1ncco1)c1nnc(C)n1-2` [II-2]: the 50% growth inhibitory concentration (GI50) with T47D cells (Homo sapiens, T47D, 72 h) was less than 500 nM.
Compound `COc1cc(O[C@H]2C(C)(C)[C@H](NC(=O)c3cnc(N4CCC(CC5CN(c6ccc(C7=N[C@@H](C)c8nnc(C)n8-c8sc(C)c(C)c87)cc6)C5)CC4)nc3)C2(C)C)ccc1C#N` [II-3] displayed a GI50 in the assay with T47D cells (Homo sapiens, T47D, 72 h) of less than 500 nM.
With `COc1cc(O[C@H]2C(C)(C)[C@H](NC(=O)c3cnc(N4CCC5(CCN(c6ccc(C7=N[C@@H](C)c8nnc(C)n8-c8sc(C)c(C)c87)cc6)CC5)C4)nc3)C2(C)C)ccc1C#N` [II-4, N-[3-(4-cyano-3-methoxy-phenoxy)-2,2,4,4-tetramethyl-cyclobutyl]-2-[8-[4-[(9S)-4,5,9,13-tetramethyl-3-thia-1,8,11,12-tetrazatricyclo[8.3.0.0^2,6]trideca-2 (6),4,7,10,12-pentaen-7-yl]phenyl]-2,8-diazaspiro[4.5]decan-2-yl]pyrimidine-5-carboxamide], the GI50 in the assay with VCaP cells (Homo sapiens, VCaP, 72 h) is less than 500 nM; in assay [1] (72 h), less than 500 nM; in assay [2], less than 500 nM; with T47D cells (Homo sapiens, T47D, 72 h) it was less than 500 nM.
For the compound `COc1cc(O[C@H]2C(C)(C)[C@H](NC(=O)c3ccc(N4CCC5(CC4)CC(Cc4ccc(C6=N[C@@H](C)c7nnc(C)n7-c7sc(C)c(C)c76)cc4)C5)nc3)C2(C)C)ccc1C#N` [II-6], the GI50 with T47D cells (Homo sapiens, T47D, 72 h) is less than 500 nM.
`COc1cc(O[C@H]2C(C)(C)[C@H](NC(=O)c3cnc(N4CCC5(CCC(c6ccc(C7=N[C@@H](C)c8nnc(C)n8-c8sc(C)c(C)c87)cc6)CC5)C4)nc3)C2(C)C)ccc1C#N` [II-7]: the GI50 in the assay with VCaP cells (Homo sapiens, VCaP, 72 h) was 1500 to 3000 nM; in assay [1] (72 h), less than 500 nM; in assay [2] it was less than 500 nM; in the assay with T47D cells (Homo sapiens, T47D, 72 h), less than 500 nM.
Turning to `COc1cc(O[C@H]2C(C)(C)[C@H](NC(=O)c3cnc(N4CCC5(CCC(c6ccc(C7=N[C@@H](C)c8nnc(C)n8-c8sc(C)c(C)c87)cc6)CC5)C4)nc3)C2(C)C)ccc1C#N` [II-8], in the assay on T47D cells, the GI50 is 500 to 1500 nM.
Turning to `COc1cc(O[C@H]2C(C)(C)[C@H](NC(=O)c3cnc(N4CCC5(CC4)CC(Cc4ccc(C6=N[C@@H](Cc7ncco7)c7nnc(C)n7-c7sc(C)c(C)c76)cc4)C5)nc3)C2(C)C)ccc1C#N` [II-10, N-[3-(4-cyano-3-methoxy-phenoxy)-2,2,4,4-tetramethyl-cyclobutyl]-2-[2-[[4-[(9S)-4,5,13-trimethyl-9-(oxazol-2-ylmethyl)-3-thia-1,8,11,12-tetrazatricyclo[8.3.0.0^2,6]trideca-2 (6),4,7,10,12-pentaen-7-yl]phenyl]methyl]-7-azaspiro[3.5]nonan-7-yl]pyrimidine-5-carboxamide], the “Ratio of GI50's” value in the assay on VCaP cells (GI50 of the top compound in the pair divided by GI50 of the lower compound) came out at 1; in assay [2] (GI50 of the top compound in the pair divided by GI50 of the lower compound, T-Rex 293 SC3 cells with doxycycline-induced androgen receptor), 1. The GI50 with VCaP cells (Homo sapiens, VCaP, 72 h) is less than 500 nM; in assay [1] (72 h) it was 500 to 1500 nM; in assay [2], less than 500 nM; with T47D cells (Homo sapiens, T47D, 72 h), less than 500 nM.
For `COc1cc(O[C@H]2C(C)(C)[C@H](NC(=O)c3cnc(N4CCC5(CC4)CC(Cc4ccc(C6=N[C@@H](Cc7ncco7)c7nnc(C)n7-c7sc(C)c(C)c76)c(F)c4)C5)nc3)C2(C)C)ccc1C#N` [II-13], the GI50 was less than 500 nM with VCaP cells (Homo sapiens, VCaP, 72 h); less than 500 nM in assay [1] (72 h); less than 500 nM in assay [2].
For the compound `COc1cc(O[C@H]2C(C)(C)[C@H](NC(=O)c3cnc(N4CCC5(CC4)CC(Oc4ccc(C6=N[C@H](Cc7ncco7)c7nnc(C)n7-c7sc(C)c(C)c76)cc4)C5)nc3)C2(C)C)ccc1C#N` [II-14], the GI50 with VCaP cells (Homo sapiens, VCaP, 72 h) was more than 3000 nM; in assay [1] (72 h) it was more than 3000 nM; in assay [2], less than 500 nM.
On to `CCc1csc2c1C(c1ccc(OC3CC4(CCN(c5ncc(C(=O)N[C@H]6C(C)(C)[C@H](Oc7ccc(C#N)c(OC)c7)C6(C)C)cn5)CC4)C3)cc1)=N[C@@H](Cc1ncco1)c1nnc(C)n1-2` [III-1, N-[(1r,3r)-3-(4-cyano-3-methoxy-phenoxy)-2,2,4,4-tetramethyl-cyclobutyl]-2-[2-[4-[(9S)-5-ethyl-13-methyl-9-(oxazol-2-ylmethyl)-3-thia-1,8,11,12-tetrazatricyclo[8.3.0.0^2,6]trideca-2 (6),4,7,10,12-pentaen-7-yl]phenoxy]-7-azaspiro[3.5]nonan-7-yl]pyrimidine-5-carboxamide], for which the GI50 is less than 500 nM in the assay with VCaP cells (Homo sapiens, VCaP, 72 h); 500 to 1500 nM in assay [1] (72 h); less than 500 nM in assay [2].
As to `COc1cc(O[C@H]2C(C)(C)[C@H](NC(=O)c3cnc(N4CCC5(CC4)CC(Oc4ccc(C6=N[C@@H](Cc7ncco7)c7nnc(C)n7-c7sc(CO)c(C)c76)cc4)C5)nc3)C2(C)C)ccc1C#N` [III-2, N-[(1r,3r)-3-(4-cyano-3-methoxy-phenoxy)-2,2,4,4-tetramethyl-cyclobutyl]-2-[2-[4-[(9S)-4-(hydroxymethyl)-5,13-dimethyl-9-(oxazol-2-ylmethyl)-3-thia-1,8,11,12-tetrazatricyclo[8.3.0.0^2,6]trideca-2 (6),4,7,10,12-pentaen-7-yl]phenoxy]-7-azaspiro[3.5]nonan-7-yl]pyrimidine-5-carboxamide], the GI50 in the assay on VCaP cells (Homo sapiens, VCaP, 72 h) is less than 500 nM; in assay [1] (72 h), less than 500 nM; in assay [2], less than 500 nM.
With `COc1cc(O[C@H]2C(C)(C)[C@@H](NC(=O)c3cnc(N4CCC5(CC4)CC(Oc4ccc(C6=NC(Cc7ncco7)c7nnc(C)n7-c7sc(C)c(C)c76)cc4)C5)nc3)C2(C)C)ccc1C#N` (stereo partly shown) [III-3, N-[(1r,3s)-3-(4-cyano-3-methoxy-phenoxy)-2,2,4,4-tetramethyl-cyclobutyl]-2-[2-[4-[4,5,13-trimethyl-9-(oxazol-2-ylmethyl)-3-thia-1,8,11,12-tetrazatricyclo[8.3.0.0^2,6]trideca-2 (6),4,7,10,12-pentaen-7-yl]phenoxy]-7-azaspiro[3.5]nonan-7-yl]pyrimidine-5-carboxamide], the GI50 in the assay with VCaP cells (Homo sapiens, VCaP, 72 h) is less than 500 nM; in assay [1] (72 h) it was less than 500 nM; in assay [2], less than 500 nM.
